Series [1] in a line: Human plasma half-life assay. Type of series: in vitro ADME. The following applies: 37° C., LC-MS, read-out: Human Plasma T½ (converted).
Series [2] is described as follows: Rat plasma half-life assay. Type of series: in vitro ADME. The following applies: 37° C., LC-MS, read-out: Rat Plasma T½ (converted).
Series [3] concerns the target T1, human recombinant GIP receptor (Homo sapiens, UniProt P48546).
T1 construct: expressed in transfected cells; host or cells: CHO-K1 clonal cells (membrane preparation)
T1 sequence (P48546 22-466): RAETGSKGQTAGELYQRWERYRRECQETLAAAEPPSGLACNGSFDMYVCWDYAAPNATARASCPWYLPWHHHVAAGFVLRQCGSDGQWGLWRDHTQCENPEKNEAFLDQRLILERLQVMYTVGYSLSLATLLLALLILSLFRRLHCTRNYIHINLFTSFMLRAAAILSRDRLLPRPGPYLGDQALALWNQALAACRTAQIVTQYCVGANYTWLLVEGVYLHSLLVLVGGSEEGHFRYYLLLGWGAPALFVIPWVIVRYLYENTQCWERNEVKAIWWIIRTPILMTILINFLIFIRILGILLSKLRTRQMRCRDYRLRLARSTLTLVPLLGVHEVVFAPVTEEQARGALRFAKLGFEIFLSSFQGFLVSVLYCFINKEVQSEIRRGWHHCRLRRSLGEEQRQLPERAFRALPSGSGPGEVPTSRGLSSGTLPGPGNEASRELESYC
Put plainly: In vitro hGIP receptor binding assay. As for the experimental part:
A. In Vitro hGIP Receptor Binding Assay […] The incubations were terminated by rapid filtration through GF/C filters (pre-soaked in 0.5% polyethylenimine) using a Brandel filtration manifold. Each tube and filter were then washed three times with 5-ml aliquots of ice-cold buffer.

These results are taken from patent publication US8999940B2 (Ipsen Pharma S.A.S., priority 2008, dated 2015).

Where a SMILES comes first, the peptide text is derived from it. Where no end group is shown, it is not given here. [ ]: non-standard residue; d: D form. The star is where a group is joined. Phe(4-Me) = Cc1ccc(C[C@H](N)C(=O)O)cc1; Desaminotyrosyl = O=C(CCc1ccc(O)cc1)*; Hyp = O=C(O)[C@@H]1C[C@@H](O)CN1; Ac6c = NC1(C(=O)O)CCCCC1; Nle = CCCC[C@H](N)C(=O)O; Ac5c = NC1(C(=O)O)CCCC1; Aib = CC(C)(N)C(=O)O Where only a bound is given, the exact number is not on record here.

For `CC[C@H](C)[C@H](NC(=O)[C@H](CCCCN)NC(=O)[C@H](CC(=O)O)NC(=O)[C@H](CCSC)NC(=O)[C@H](C)NC(=O)[C@@H](NC(=O)C1(NC(=O)[C@H](Cc2ccc(O)cc2)NC(=O)[C@H](CC(=O)O)NC(=O)[C@H](CO)NC(=O)[C@@H](NC(=O)[C@H](Cc2ccccc2)NC(=O)[C@@H](NC(=O)CNC(=O)[C@H](CCC(=O)O)NC(=O)C(C)(C)NC(=O)[C@@H](N)Cc2ccc(O)c(O)c2)[C@@H](C)O)[C@@H](C)CC)CCCC1)[C@@H](C)CC)C(=O)N[C@@H](Cc1c[nH]cn1)C(=O)N[C@@H](CCC(N)=O)C(=O)N[C@@H](CCC(N)=O)C(=O)N[C@@H](CC(=O)O)C(=O)N[C@@H](Cc1ccccc1)C(=O)N[C@H](C(=O)N[C@@H](CC(N)=O)C(=O)N[C@@H](Cc1c[nH]c2ccccc12)C(=O)N[C@@H](CC(C)C)C(=O)N[C@@H](CC(C)C)C(=O)N[C@@H](C)C(=O)N[C@@H](CCC(N)=O)C(=O)N[C@@H](CCCCN)C(=O)NCC(=O)N[C@@H](CCCCN)C(=O)N[C@@H](CCCCN)C(=O)N[C@@H](CC(N)=O)C(=O)N[C@@H](CC(=O)O)C(=O)N[C@@H](Cc1c[nH]c2ccccc12)C(=O)N[C@@H](CCCCN)C(=O)N[C@@H](Cc1c[nH]cn1)C(=O)N[C@@H](CC(N)=O)C(=O)N[C@H](C(=O)NC1(C(=O)N[C@@H](CCC(N)=O)C(=O)O)CCCC1)[C@@H](C)CC)C(C)C` [Example 27, (30H-Tyr^1, Aib^2, A5c^11, 41)hGIP(1-42)-OH], the half-life at 0.1 mg/ml in series [1] was 7 h; in series [2], 5.1 h. Besides, in series [3], the Ki worked out at 6.69 nM.

In the case of “Desaminotyrosyl-A[Hyp]GTF[Ac6c]SDYSIAMDKIHQQDFVNWLLAQKGKKNDWKHNITQ [Example 7, (4Hppa^1, 4Hyp^3, A6c^7)hGIP(1-42)-OH]”, the figures for the half-life at 0.1 mg/ml in series [1] and in series [2] were 38.5 h and 6.8 h, respectively. Further, the Ki in series [3] turned out to be 251 nM.

On to `CCCC[C@H](NC(=O)[C@H](C)NC(=O)[C@@H](NC(=O)C1(NC(=O)[C@H](Cc2ccc(O)cc2)NC(=O)[C@H](CC(=O)O)NC(=O)[C@H](CO)NC(=O)[C@@H](NC(=O)[C@H](Cc2ccccc2)NC(=O)[C@@H](NC(=O)CNC(=O)[C@H](CCC(=O)O)NC(=O)C(C)(C)NC(=O)[C@@H](N)Cc2ccc(F)c(F)c2)[C@@H](C)O)[C@@H](C)CC)CCCC1)[C@@H](C)CC)C(=O)N[C@@H](CC(=O)O)C(=O)N[C@@H](CCCCN)C(=O)N[C@H](C(=O)N[C@@H](Cc1c[nH]cn1)C(=O)N[C@@H](CCC(N)=O)C(=O)N[C@@H](CCC(N)=O)C(=O)N[C@@H](CC(=O)O)C(=O)N[C@@H](Cc1ccccc1)C(=O)N[C@H](C(=O)N[C@@H](CC(N)=O)C(=O)N[C@@H](Cc1c[nH]c2ccccc12)C(=O)N[C@@H](CC(C)C)C(=O)N[C@@H](CC(C)C)C(=O)N[C@@H](C)C(=O)N[C@@H](CCC(N)=O)C(=O)N[C@@H](CCCCN)C(=O)NCC(=O)N[C@@H](CCCCN)C(=O)N[C@@H](CCCCN)C(=O)N[C@@H](CC(N)=O)C(=O)N[C@@H](CC(=O)O)C(=O)N[C@@H](Cc1c[nH]c2ccccc12)C(=O)N[C@@H](CCCCN)C(=O)N[C@@H](Cc1c[nH]cn1)C(=O)N[C@@H](CC(N)=O)C(=O)N[C@H](C(=O)N[C@H](C(=O)N[C@@H](CCC(N)=O)C(=O)O)[C@@H](C)O)[C@@H](C)CC)C(C)C)[C@@H](C)CC` [Example 24, (3,4F-Phe^1, Aib^2, A5c^11, Nle^14)hGIP(1-42)-OH], for which the half-life at 0.1 mg/ml in series [1] and in series [2] was more than 74 h throughout. Further, the Ki in series [3] was determined as 15.7 nM.

Regarding `CCCC[C@H](NC(=O)[C@H](C)NC(=O)[C@@H](NC(=O)C1(NC(=O)[C@H](Cc2ccc(O)cc2)NC(=O)[C@H](CC(=O)O)NC(=O)[C@H](CO)NC(=O)[C@@H](NC(=O)[C@H](Cc2ccccc2)NC(=O)[C@@H](NC(=O)CNC(=O)[C@H](CCC(=O)O)NC(=O)C(C)(C)NC(=O)[C@@H](N)Cc2c[nH]cn2)[C@@H](C)O)[C@@H](C)CC)CCCC1)[C@@H](C)CC)C(=O)N[C@@H](CC(=O)O)C(=O)N[C@@H](CCCCN)C(=O)N[C@H](C(=O)N[C@@H](Cc1c[nH]cn1)C(=O)N[C@@H](CCC(N)=O)C(=O)N[C@@H](CCC(N)=O)C(=O)N[C@@H](CC(=O)O)C(=O)N[C@@H](Cc1ccccc1)C(=O)N[C@H](C(=O)N[C@@H](CC(N)=O)C(=O)N[C@@H](Cc1c[nH]c2ccccc12)C(=O)N[C@@H](CC(C)C)C(=O)N[C@@H](CC(C)C)C(=O)N[C@@H](C)C(=O)N[C@@H](CCC(N)=O)C(=O)N[C@@H](CCCCN)C(=O)NCC(=O)N[C@@H](CCCCN)C(=O)N[C@@H](CCCCN)C(=O)N[C@@H](CC(N)=O)C(=O)N[C@@H](CC(=O)O)C(=O)N[C@@H](Cc1c[nH]c2ccccc12)C(=O)N[C@@H](CCCCN)C(=O)N[C@@H](Cc1c[nH]cn1)C(=O)N[C@@H](CC(N)=O)C(=O)N[C@H](C(=O)N[C@H](C(=O)N[C@@H](CCC(N)=O)C(=O)O)[C@@H](C)O)[C@@H](C)CC)C(C)C)[C@@H](C)CC` [Example 12, (His^1, Aib^2, A5c^11, Nle^14)hGIP(1-42)-OH], the figures for the half-life at 0.1 mg/ml in series [1] and in series [2] were 82.5 h and 11 h, respectively. Moreover, the Ki in series [3] came out at 3.18 nM.

Regarding `CCCC[C@H](NC(=O)[C@H](C)NC(=O)[C@@H](NC(=O)[C@H](CO)NC(=O)[C@H](Cc1ccc(O)cc1)NC(=O)[C@H](CC(=O)O)NC(=O)[C@H](CO)NC(=O)[C@@H](NC(=O)[C@H](Cc1ccccc1)NC(=O)[C@@H](NC(=O)CNC(=O)[C@H](CCC(=O)O)NC(=O)C(C)(C)NC(=O)CCc1ccc(O)cc1)[C@@H](C)O)[C@@H](C)CC)[C@@H](C)CC)C(=O)N[C@@H](CC(=O)O)C(=O)N[C@@H](CCCCN)C(=O)N[C@H](C(=O)N[C@@H](Cc1c[nH]cn1)C(=O)N[C@@H](CCC(N)=O)C(=O)N[C@@H](CCC(N)=O)C(=O)N[C@@H](CC(=O)O)C(=O)N[C@@H](Cc1ccccc1)C(=O)N[C@H](C(=O)N[C@@H](CC(N)=O)C(=O)N[C@@H](Cc1c[nH]c2ccccc12)C(=O)N[C@@H](CC(C)C)C(=O)N[C@@H](CC(C)C)C(=O)N[C@@H](C)C(=O)N[C@@H](CCC(N)=O)C(=O)N[C@@H](CCCCN)C(N)=O)C(C)C)[C@@H](C)CC` [Example 5, (4Hppa^1, Aib^2, Nle^14)hGIP(1-30)-NH2] (Desaminotyrosyl-[Aib]EGTFISDYSIA[Nle]DKIHQQDFVNWLLAQK-NH2), the values for the half-life at 0.1 mg/ml in series [1] and in series [2] were 50.6 h and 83.5 h, respectively. Further, the Ki in series [3] stood at 2.95 nM.

Take “[Phe(4-Me)][Aib]EGTFISDY[Ac5c]IAMDKIHQQDFVNWLLAQKGKKNDWKHNITQH-OH [Example 78, (4Me-Phe^1, Aib^2, A5c^11, His^43)hGIP(1-43)-OH]”: the half-life at 0.1 mg/ml in series [1] is 14.9 h; in series [2], more than 52 h. In addition, in series [3], the Ki was 9.13 nM.

Take `CCCC[C@H](NC(=O)[C@H](C)NC(=O)[C@@H](NC(=O)C1(NC(=O)[C@H](Cc2ccc(O)cc2)NC(=O)[C@H](CC(=O)O)NC(=O)[C@H](CO)NC(=O)[C@@H](NC(=O)[C@H](Cc2ccccc2)NC(=O)[C@@H](NC(=O)CNC(=O)[C@H](CCC(=O)O)NC(=O)C(C)(C)NC(=O)[C@@H](N)Cc2cc(F)cc(F)c2)[C@@H](C)O)[C@@H](C)CC)CCCC1)[C@@H](C)CC)C(=O)N[C@@H](CC(=O)O)C(=O)N[C@@H](CCCCN)C(=O)N[C@H](C(=O)N[C@@H](Cc1c[nH]cn1)C(=O)N[C@@H](CCC(N)=O)C(=O)N[C@@H](CCC(N)=O)C(=O)N[C@@H](CC(=O)O)C(=O)N[C@@H](Cc1ccccc1)C(=O)N[C@H](C(=O)N[C@@H](CC(N)=O)C(=O)N[C@@H](Cc1c[nH]c2ccccc12)C(=O)N[C@@H](CC(C)C)C(=O)N[C@@H](CC(C)C)C(=O)N[C@@H](C)C(=O)N[C@@H](CCC(N)=O)C(=O)N[C@@H](CCCCN)C(=O)NCC(=O)N[C@@H](CCCCN)C(=O)N[C@@H](CCCCN)C(=O)N[C@@H](CC(N)=O)C(=O)N[C@@H](CC(=O)O)C(=O)N[C@@H](Cc1c[nH]c2ccccc12)C(=O)N[C@@H](CCCCN)C(=O)N[C@@H](Cc1c[nH]cn1)C(=O)N[C@@H](CC(N)=O)C(=O)N[C@H](C(=O)N[C@H](C(=O)N[C@@H](CCC(N)=O)C(=O)O)[C@@H](C)O)[C@@H](C)CC)C(C)C)[C@@H](C)CC` [Example 25, (3,5F-Phe^1, Aib^2, A5c^11, Nle^14)hGIP(1-42)-OH]: the half-life at 0.1 mg/ml in series [1] and in series [2] was more than 74 h throughout. Further, in series [3], the Ki was found to be 26 nM.

The term Ki denotes the equilibrium dissociation constant of an inhibitor or competing ligand from its target.
